From patent US20240252677A1, “ONE-COMPONENT DELIVERY SYSTEM FOR NUCLEIC ACIDS” (The Trustees of the University of Pennsylvania, priority 2021, published 2024)

How the values were obtained:
[1] = Cryo-TEM of dendrimersomes from glycerol-JDs, number of vesicle layers; type: physicochemical; conditions: for Number of vesicle layers: 1 (count of vesicles): vesicles with 1 layer; for Number of vesicle layers: 2 (count of vesicles): vesicles with 2 layers; for Number of vesicle layers: 3 (count of vesicles): vesicles with 3 layers; for Number of vesicle layers: 4 (count of vesicles): vesicles with 4 layers; for Number of vesicle layers: 5 (count of vesicles): vesicles with 5 layers; for Number of vesicle layers: 6 (count of vesicles): vesicles with 6 layers; for lamellarity of DSs (in words) / calculated percentages of unilamellar DSs in the selected images: cryo-TEM; for calculated percentages of unilamellar DSs in the selected images: JD 1 mg mL-1 in water; for Number of vesicle layers: 7 (count of vesicles): vesicles with 7 layers; for Number of vesicle layers: 8 (count of vesicles): vesicles with 8 layers; for Number of vesicle layers: 9 (count of vesicles): vesicles with 9 layers; for Number of vesicle layers: 10 (count of vesicles): vesicles with 10 layers; for Number of vesicle layers: 11 (count of vesicles): vesicles with 11 layers; for Number of vesicle layers: 12 (count of vesicles): vesicles with 12 layers
From the text: The red numbers in FIG. 85 stand for the unilamellar while yellow numbers for multilamellar DSs. The calculated percentages of unilamellar DSs in the selected images for 2R, 2S and 2rac are 91%, 70% and 13%, respectively. Same trend was found for cryo-TEM of 1R, 1S and 1rac (FIG. 86 through FIG. 88). […] Achiral DSs are all unilamellar.
Cryogenic Transmission Electron Microscopy (Cryo-TEM). Morphologies of the Janus Dendrimer assemblies were characterized by cryo-TEM. Images were acquired on a Carl Zeiss Libra 120 microscope. Samples were prepared by plunge freezing of aqueous dispersion on plasma-treated lacey grids. The vitrified specimens were then transferred to a Gatan-910 cryoholder. The 5 images were recorded at −170° C. with an acceleration voltage of 120 kV. The concentration of JD in the aqueous solution of DSs was 1 mg mL-^1.

[2] = DLS size of dendrimersomes assembled from glycerol-JDs in water at different concentrations; type: physicochemical; conditions: for Dh (nm): size distribution by intensity
Experimental: Assembly of all eight glycerol-JDs was performed by injection of their ethanol solution (50 μL) into 1 mL of Milli-Q water. The size distribution and structure of resulting DSs were analyzed by DLS (FIG. 84) and cryo-TEM. […] In a certain concentration range the size of DSs increased with the concentration of JDs injected in water or buffer. […] The dimensions of the assemblies were identical when the concentrations of the JDs in water were identical. Sizes of assemblies from mixtures of 1R and 1S in different ratios (1:3, 1:1 and 3:1), were also identical (FIG. 84). […] With the exception of the rotation of polarized light, the physical properties of enantiomers and their racemic mixtures must be identical.
Dynamic light scattering (DLS). Hydrodynamic diameters (Dh) of the self-assemblies of dendrimer molecules and their size distributions were measured on a Malvern Instruments particle sizer (Zetasizer® Nano S, Malvern Instruments, UK) equipped with 4 mW He—Ne laser (633 nm) and avalanche photodiode positioned at […] to the beam and temperature controlled cuvette holder. Experiments were performed at 25° C. in triplicate. The distribution of radius was intensity.

Compound: CCCCCCCCCCCCOc1cc(OCCCCCCCCCCCC)cc(C(=O)OC[C@H](COC(=O)C(C)(COC(=O)c2cc(OCCOCCOCCOC)c(OCCOCCOCCOC)c(OCCOCCOCCOC)c2)COC(=O)c2cc(OCCOCCOCCOC)c(OCCOCCOCCOC)c(OCCOCCOCCOC)c2)OC(=O)c2cc(OCCCCCCCCCCCC)cc(OCCCCCCCCCCCC)c2)c1 [Compound 1R, (3,5)-12G1-GC-(R)-BMPA-(3,4,5)-3EO-G1]
- Number of vesicle layers: 1 (count of vesicles) [1]: 61
- Number of vesicle layers: 2 (count of vesicles) [1]: 15
- Number of vesicle layers: 3 (count of vesicles) [1]: 4
- Number of vesicle layers: 4 (count of vesicles) [1]: 1
- Number of vesicle layers: 5 (count of vesicles) [1]: 1
- Number of vesicle layers: 6 (count of vesicles) [1]: 0
- PDI ([2]; JD 0.025 mg·mL−1 in water): 0.455
- Dh (nm) ([2]; JD 0.025 mg·mL−1 in water): 82 nm
- PDI ([2]; JD 0.05 mg·mL−1 in water): 0.336
- Dh (nm) ([2]; JD 0.05 mg·mL−1 in water): 87 nm
- PDI ([2]; JD 0.1 mg·mL−1 in water): 0.197
- Dh (nm) ([2]; JD 0.1 mg·mL−1 in water): 110 nm
- PDI ([2]; JD 0.15 mg·mL−1 in water): 0.195
- Dh (nm) ([2]; JD 0.15 mg·mL−1 in water): 124 nm
- PDI ([2]; JD 0.2 mg·mL−1 in water): 0.175
- Dh (nm) ([2]; JD 0.2 mg·mL−1 in water): 135 nm
- PDI ([2]; JD 0.25 mg·mL−1 in water): 0.202
- Dh (nm) ([2]; JD 0.25 mg·mL−1 in water): 140 nm
- PDI ([2]; JD 0.3 mg·mL−1 in water): 0.190
- Dh (nm) ([2]; JD 0.3 mg·mL−1 in water): 148 nm
- PDI ([2]; JD 0.4 mg·mL−1 in water): 0.228
- Dh (nm) ([2]; JD 0.4 mg·mL−1 in water): 178 nm
- PDI ([2]; JD 0.5 mg·mL−1 in water): 0.326
- Dh (nm) ([2]; JD 0.5 mg·mL−1 in water): 233 nm

Compound: CCCCCCCCCCCCOc1cc(OCCCCCCCCCCCC)cc(C(=O)OC[C@@H](COC(=O)C(C)(COC(=O)c2cc(OCCOCCOCCOC)c(OCCOCCOCCOC)c(OCCOCCOCCOC)c2)COC(=O)c2cc(OCCOCCOCCOC)c(OCCOCCOCCOC)c(OCCOCCOCCOC)c2)OC(=O)c2cc(OCCCCCCCCCCCC)cc(OCCCCCCCCCCCC)c2)c1 [Compound 1S, (3,5)-12G1-GC-(S)-BMPA-(3,4,5)-3EO-G1]
- Number of vesicle layers: 1 (count of vesicles) [1]: 23
- Number of vesicle layers: 2 (count of vesicles) [1]: 9
- Number of vesicle layers: 3 (count of vesicles) [1]: 3
- Number of vesicle layers: 4 (count of vesicles) [1]: 4
- Number of vesicle layers: 5 (count of vesicles) [1]: 1
- Number of vesicle layers: 6 (count of vesicles) [1]: 0
- PDI ([2]; JD 0.025 mg·mL−1 in water): 0.446
- Dh (nm) ([2]; JD 0.025 mg·mL−1 in water): 80 nm
- PDI ([2]; JD 0.05 mg·mL−1 in water): 0.359
- Dh (nm) ([2]; JD 0.05 mg·mL−1 in water): 86 nm
- PDI ([2]; JD 0.1 mg·mL−1 in water): 0.223
- Dh (nm) ([2]; JD 0.1 mg·mL−1 in water): 100 nm
- PDI ([2]; JD 0.15 mg·mL−1 in water): 0.190
- Dh (nm) ([2]; JD 0.15 mg·mL−1 in water): 124 nm
- PDI ([2]; JD 0.2 mg·mL−1 in water): 0.195
- Dh (nm) ([2]; JD 0.2 mg·mL−1 in water): 135 nm
- PDI ([2]; JD 0.25 mg·mL−1 in water): 0.203
- Dh (nm) ([2]; JD 0.25 mg·mL−1 in water): 142 nm
- PDI ([2]; JD 0.3 mg·mL−1 in water): 0.186
- Dh (nm) ([2]; JD 0.3 mg·mL−1 in water): 147 nm
- PDI ([2]; JD 0.4 mg·mL−1 in water): 0.258
- Dh (nm) ([2]; JD 0.4 mg·mL−1 in water): 184 nm
- PDI ([2]; JD 0.5 mg·mL−1 in water): 0.438
- Dh (nm) ([2]; JD 0.5 mg·mL−1 in water): 229 nm

Compound: CCCCCCCCCCCCOc1cc(OCCCCCCCCCCCC)cc(C(=O)OCC(C)(COC(=O)c2cc(OCCCCCCCCCCCC)cc(OCCCCCCCCCCCC)c2)C(=O)OC[C@@H](COC(=O)c2cc(OCCOCCOCCOC)c(OCCOCCOCCOC)c(OCCOCCOCCOC)c2)OC(=O)c2cc(OCCOCCOCCOC)c(OCCOCCOCCOC)c(OCCOCCOCCOC)c2)c1 [Compound 2R, (3,5)-12G1-BMPA-GC-(R)-(3,4,5)-3EO-G1]
- lamellarity of DSs (in words) [1]: unilamellar DSs predominantly
- calculated percentages of unilamellar DSs in the selected images [1]: 91%
- Number of vesicle layers: 1 (count of vesicles) [1]: 202
- Number of vesicle layers: 2 (count of vesicles) [1]: 2
- Number of vesicle layers: 3 (count of vesicles) [1]: 5
- Number of vesicle layers: 4 (count of vesicles) [1]: 1
- Number of vesicle layers: 5 (count of vesicles) [1]: 3
- Number of vesicle layers: 6 (count of vesicles) [1]: 2
- Number of vesicle layers: 7 (count of vesicles) [1]: 0
- Number of vesicle layers: 8 (count of vesicles) [1]: 0
- Number of vesicle layers: 9 (count of vesicles) [1]: 0
- Number of vesicle layers: 10 (count of vesicles) [1]: 0
- Number of vesicle layers: 11 (count of vesicles) [1]: 1
- Number of vesicle layers: 12 (count of vesicles) [1]: 0
- PDI ([2]; JD 0.025 mg·mL−1 in water): 0.416
- Dh (nm) ([2]; JD 0.025 mg·mL−1 in water): 107 nm
- PDI ([2]; JD 0.05 mg·mL−1 in water): 0.368
- Dh (nm) ([2]; JD 0.05 mg·mL−1 in water): 108 nm
- PDI ([2]; JD 0.1 mg·mL−1 in water): 0.258
- Dh (nm) ([2]; JD 0.1 mg·mL−1 in water): 111 nm
- PDI ([2]; JD 0.15 mg·mL−1 in water): 0.257
- Dh (nm) ([2]; JD 0.15 mg·mL−1 in water): 125 nm
- PDI ([2]; JD 0.2 mg·mL−1 in water): 0.242
- Dh (nm) ([2]; JD 0.2 mg·mL−1 in water): 134 nm
- PDI ([2]; JD 0.25 mg·mL−1 in water): 0.186
- Dh (nm) ([2]; JD 0.25 mg·mL−1 in water): 139 nm
- PDI ([2]; JD 0.3 mg·mL−1 in water): 0.227
- Dh (nm) ([2]; JD 0.3 mg·mL−1 in water): 152 nm
- PDI ([2]; JD 0.4 mg·mL−1 in water): 0.263
- Dh (nm) ([2]; JD 0.4 mg·mL−1 in water): 180 nm
- PDI ([2]; JD 0.5 mg·mL−1 in water): 0.497
- Dh (nm) ([2]; JD 0.5 mg·mL−1 in water): 319 nm

Compound: CCCCCCCCCCCCOc1cc(OCCCCCCCCCCCC)cc(C(=O)OCC(C)(COC(=O)c2cc(OCCCCCCCCCCCC)cc(OCCCCCCCCCCCC)c2)C(=O)OC[C@H](COC(=O)c2cc(OCCOCCOCCOC)c(OCCOCCOCCOC)c(OCCOCCOCCOC)c2)OC(=O)c2cc(OCCOCCOCCOC)c(OCCOCCOCCOC)c(OCCOCCOCCOC)c2)c1 [Compound 2S, (3,5)-12G1-BMPA-GC-(S)-(3,4,5)-3EO-G1]
- lamellarity of DSs (in words) [1]: unilamellar DSs predominantly
- calculated percentages of unilamellar DSs in the selected images [1]: 70%
- Number of vesicle layers: 1 (count of vesicles) [1]: 63
- Number of vesicle layers: 2 (count of vesicles) [1]: 13
- Number of vesicle layers: 3 (count of vesicles) [1]: 9
- Number of vesicle layers: 4 (count of vesicles) [1]: 1
- Number of vesicle layers: 5 (count of vesicles) [1]: 0
- Number of vesicle layers: 6 (count of vesicles) [1]: 0
- Number of vesicle layers: 7 (count of vesicles) [1]: 1
- Number of vesicle layers: 8 (count of vesicles) [1]: 1
- Number of vesicle layers: 9 (count of vesicles) [1]: 0
- Number of vesicle layers: 10 (count of vesicles) [1]: 3
- Number of vesicle layers: 11 (count of vesicles) [1]: 1
- Number of vesicle layers: 12 (count of vesicles) [1]: 0
- PDI ([2]; JD 0.025 mg·mL−1 in water): 0.465
- Dh (nm) ([2]; JD 0.025 mg·mL−1 in water): 106 nm
- PDI ([2]; JD 0.05 mg·mL−1 in water): 0.422
- Dh (nm) ([2]; JD 0.05 mg·mL−1 in water): 107 nm
- PDI ([2]; JD 0.1 mg·mL−1 in water): 0.291
- Dh (nm) ([2]; JD 0.1 mg·mL−1 in water): 112 nm
- PDI ([2]; JD 0.15 mg·mL−1 in water): 0.212
- Dh (nm) ([2]; JD 0.15 mg·mL−1 in water): 119 nm
- PDI ([2]; JD 0.2 mg·mL−1 in water): 0.203
- Dh (nm) ([2]; JD 0.2 mg·mL−1 in water): 128 nm
- PDI ([2]; JD 0.25 mg·mL−1 in water): 0.223
- Dh (nm) ([2]; JD 0.25 mg·mL−1 in water): 132 nm
- PDI ([2]; JD 0.3 mg·mL−1 in water): 0.235
- Dh (nm) ([2]; JD 0.3 mg·mL−1 in water): 153 nm
- PDI ([2]; JD 0.4 mg·mL−1 in water): 0.205
- Dh (nm) ([2]; JD 0.4 mg·mL−1 in water): 165 nm
- PDI ([2]; JD 0.5 mg·mL−1 in water): 0.295
- Dh (nm) ([2]; JD 0.5 mg·mL−1 in water): 288 nm
